Results on 14 compounds are retold here after patent publication US6756376B1, “Tricyclic azaindolizine derivatives having an sPLA2-inhibitory activities” (Shionogi & Co., Ltd., priority 1999, dated 2004).

The target in one data set is human type I sPLA2 (Homo sapiens, UniProt P04054). Briefly: Inhibition test of human secretory phospholipase A2, chromogenic assay, Type I enzyme. It is filed as biochemical. As to conditions: human type I enzyme 90 ng/well, absorbance change 30 min, OD 405 nm. The source says:
(§1) In order to identify and evaluate an inhibitor of recombinant human secretory phospholipase A2, the following chromogenic assay is utilized. The assay herein has been applied for high volume screening wherein 96 well microtiterplate is used. A general explanation for such assay is described in “Analysis of Human Synovial Fluid Phospholipase A2 on Short Chain Phosphatidylcholine-Mixed Micelles: Development of a Spectrophotometric Assay Suitable for a Micortiterplate Reader” (Analytical Biochemistry, 204, pp 190-197, 1992 by Laure. J. Reynolds. Lori L. Hughes and Edward A. Dennis: the disclosure of which is incorporated herein for reference.
Type I enzyme: sPLA2 solution (330 ng/μl) (described in A. Kanda et. al., Biochimica et Biophysica Acta. 1171 (1992) 1-10) is dissolved in the assay (enzyme solution 27 μl is diluted with 1973 μl of the reaction buffer).
(§2) 1) 0.106 ml of the substrate solution is put in a centrifugal tube, and nitrogen gas is jetted to remove the solvent. 0.54 ml of Triton-X 100 is added thereto, the mixture is stirred, thereafter it is sonified in a bath type sonification to dissolve. To the resulting product are added 17.8 ml of the reaction buffer and 0.46 ml of DTNB, and 0.18 ml each of the admixture is poured to wells of the 96 well microtiterplate.
(§3) 2) 10 μl of a test compound (or solvent blank) are added in accordance with alignment of plates which has been previously set.
(§4) 3) Incubation is effected at 40° C. for 15 minutes.
(§5) 4) 90 ng/well in case of human type I enzyme, 50 ng/well in case of human type II enzyme, 40 μl/well in case of human type V enzyme, 15 μl/well in case of human type X enzyme were reacted.
(§6) 5) Changes in absorbancy for 30 minutes for humane type I, type II, and type X enzyme and for 45 min for human type V enzyme, are measured by a plate reader, and inhibition activity was calculated (OD: 405 nm).
(§7) 6) IC50 was determined by plotting log concentration with respect to inhibition values within 10% to 90% inhibiting range.

A further data set has as its target T1, human type V sPLA2 (Homo sapiens, UniProt P39877).
T1 construct: made in house; unpurified culture supernatant used
T1 sequence (P39877 21-138): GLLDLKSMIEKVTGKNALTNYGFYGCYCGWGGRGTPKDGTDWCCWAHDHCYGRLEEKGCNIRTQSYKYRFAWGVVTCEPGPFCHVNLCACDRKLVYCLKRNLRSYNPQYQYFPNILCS
Briefly: Inhibition test of human secretory phospholipase A2, chromogenic assay, Type V enzyme. The data set is classed as biochemical. As to conditions: human type V enzyme (CHO supernatant) 40 μl/well, absorbance change 45 min, OD 405 nm. The source says:
(§8) In order to identify and evaluate an inhibitor of recombinant human secretory phospholipase A2, the following chromogenic assay is utilized. The assay herein has been applied for high volume screening wherein 96 well microtiterplate is used. A general explanation for such assay is described in “Analysis of Human Synovial Fluid Phospholipase A2 on Short Chain Phosphatidylcholine-Mixed Micelles: Development of a Spectrophotometric Assay Suitable for a Micortiterplate Reader” (Analytical Biochemistry, 204, pp 190-197, 1992 by Laure. J. Reynolds. Lori L. Hughes and Edward A. Dennis: the disclosure of which is incorporated herein for reference. Type V and Type X enzymes: cDNA sequences encoding human type V and Type X sPLA2 (Chen et., al., J. Biol. Chem., 1994. 269, 2365-2368 and Cupillard et., al., J. Biol. Chem., 1997, 272, 15745-15762) were inserted into downstream of promoter of pSVL SV40 Late Promoter Expression Vector (Amersham Pharmacia Biotech K. K.), mammalian cell expression vector, forwardly. The recombinant expression vectors were transfected into CHO host cells by LipofectAMINE regent (Gibco BRL.) according to the attached manual and the cells expressed each of human type V and type X sPLA2 stably. After each expressing cells were cultured in σ-MEM medium including 10% fetal serum albumin for 3 days, the cells supernatant were collected and measured enzymatic activity. 1) 0.106 ml of the substrate solution is put in a centrifugal tube, and nitrogen gas is jetted to remove the solvent. 0.54 ml of Triton-X 100 is added thereto, the mixture is stirred, thereafter it is sonified in a bath type sonification to dissolve. To the resulting product are added 17.8 ml of the reaction buffer and 0.46 ml of DTNB, and 0.18 ml each of the admixture is poured to wells of the 96 well microtiterplate. 2) 10 μl of a test compound (or solvent blank) are added in accordance with alignment of plates which has been previously set. 3) Incubation is effected at 40° C. for 15 minutes. 4) 90 ng/well in case of human type I enzyme, 50 ng/well in case of human type II enzyme, 40 μl/well in case of human type V enzyme, 15 μl/well in case of human type X enzyme were reacted. 5) Changes in absorbancy for 30 minutes for humane type I, type II, and type X enzyme and for 45 min for human type V enzyme, are measured by a plate reader, and inhibition activity was calculated (OD: 405 nm). 6) IC50 was determined by plotting log concentration with respect to inhibition values within 10% to 90% inhibiting range.

Another data set concerns the target T2, human type X sPLA2 (Homo sapiens, UniProt O15496).
T2 construct: made in house; unpurified culture supernatant used
T2 sequence (O15496 43-165): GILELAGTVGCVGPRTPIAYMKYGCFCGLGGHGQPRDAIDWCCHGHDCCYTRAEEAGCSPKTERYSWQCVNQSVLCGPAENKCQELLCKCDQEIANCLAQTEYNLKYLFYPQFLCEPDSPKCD
Kind of data set: Inhibition test of human secretory phospholipase A2, chromogenic assay, Type X enzyme. It is filed as biochemical. As to conditions: human type X enzyme (CHO supernatant) 15 μl/well, absorbance change 30 min, OD 405 nm.
Text: as §8

For the next data set, the target named is T3, human type II sPLA2 (Homo sapiens, UniProt P14555).
T3 sequence (P14555 21-144): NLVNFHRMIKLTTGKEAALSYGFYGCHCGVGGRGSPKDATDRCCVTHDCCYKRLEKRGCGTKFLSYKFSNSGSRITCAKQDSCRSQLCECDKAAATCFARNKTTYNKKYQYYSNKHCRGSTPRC
Briefly: Inhibition test of human secretory phospholipase A2, chromogenic assay, Type II enzyme. It is filed as biochemical. As to conditions: human type II enzyme 50 ng/well, absorbance change 30 min, OD 405 nm.
Text: as §1
Type II enzyme: 1 mg of sPLA2 is dissolved in 1 ml of an enzyme buffer. Thereafter, the solution is maintained at 4° C. In the assay, 5 >l of the solution is diluted with 1995 μl of the reaction buffer to be used.
as §2, §3, §4, §5, §6, §7

Sequence of human type I sPLA2 (P04054 23-148): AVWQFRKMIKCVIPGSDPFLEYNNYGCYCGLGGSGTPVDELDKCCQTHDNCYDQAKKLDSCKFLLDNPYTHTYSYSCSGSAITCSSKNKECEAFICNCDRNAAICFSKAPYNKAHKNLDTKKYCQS

Turning to `Cc1cc(OC(C)C(=O)O)c2c3c(c(Cc4ccccc4)n2n1)CCC=C3C(N)=O` (stereo not drawn) [Compound I-2], the 50% inhibitory concentration (IC50) against human type I sPLA2 was 79 nM; at human type V sPLA2, 3 nM; against human type X sPLA2, 4 nM; on human type II sPLA2, 15 nM.
Regarding `NC(=O)C1=CCCc2c1c1c(OCC(=O)O)cc(-c3ccccc3)nn1c2Cc1ccccc1` [Compound I-9], the 50% inhibitory concentration (IC50) came to 51 nM on human type I sPLA2, 0.2 nM on human type V sPLA2, 1 nM against human type X sPLA2 and 8 nM on human type II sPLA2.
For `NC(=O)C1=CCCc2c1c1c(OCC(=O)O)nccn1c2Cc1ccccc1` [Compound I-12], in that order: 86 nM, 2 nM, 4 nM and 8 nM.
In the case of `Cc1cc(OCC(=O)O)c2c3c(c(Cc4ccc(Cl)cc4)n2n1)CCC=C3C(N)=O` [Compound I-5], the IC50 at human type I sPLA2 came to 147 nM; at human type V sPLA2, 1 nM; against human type X sPLA2, 6 nM; at human type II sPLA2, 8 nM.
In the case of `COc1cccc(Cc2c3c(c4c(OCC(=O)O)cc(-c5ccccc5)nn24)C(C(N)=O)=CCC3)c1` [Compound I-10], the IC50 at human type I sPLA2 was 49 nM; against human type V sPLA2, 0.2 nM; at human type X sPLA2, 2 nM; against human type II sPLA2 it was 6 nM.
Taken in the same sequence, the figures for `Cc1ccc(Cc2c3c(c4c(OC(C)C(=O)O)cc(C)nn24)C(C(N)=O)=CCC3)cc1` (stereo not drawn) [Compound I-4] were 139 nM, 2 nM, 7 nM and 21 nM.
Consider `Cc1cc(OCC(=O)O)c2c3c(c(Cc4ccccc4)n2n1)CCC=C3C(N)=O` [Compound I-1], for which the melting point is 256 to 258 °C (dec.). The same compound yielded a concentration for half-maximal inhibition (IC50) against human type I sPLA2 of 170 nM. The compound further showed an IC50 against human type V sPLA2 of 2 nM. This compound gave an IC50 against human type X sPLA2 of 4 nM. This compound also yielded an IC50 at human type II sPLA2 of 7 nM.
Regarding `Cc1ccc(Cc2c3c(c4c(OCC(=O)O)cc(C)nn24)C(C(N)=O)=CCC3)cc1` [Compound I-3], the 50% inhibitory concentration (IC50) on human type I sPLA2 stood at 460 nM; against human type V sPLA2, 2 nM; against human type X sPLA2, 10 nM; at human type II sPLA2 it was 11 nM.
For the compound `COc1cccc(Cc2c3c(c4c(OCC(=O)O)cc(C)nn24)C(C(N)=O)=CCC3)c1` [Compound I-7], the IC50 came to 215 nM at human type I sPLA2, 2 nM against human type V sPLA2, 16 nM on human type X sPLA2 and 10 nM against human type II sPLA2.
Taken in the same sequence, the figures for `Cc1cn2c(Cc3ccccc3)c3c(c2c(OCC(=O)O)n1)C(C(N)=O)=CCC3` [Compound I-11] were 234 nM, 1 nM, 6 nM and 9 nM.
Taken in the same sequence, the figures for `Cc1cn2c(CC3CCCCC3)c3c(c2c(OC(C)C(=O)O)n1)C(C(N)=O)=CCC3` (stereo not drawn) [Compound I-14] were 57 nM, 1 nM, 1 nM and 14 nM.
For `Cc1cn2c(Cc3ccccc3)c3c(c2c(OC(C)C(=O)O)n1)C(C(N)=O)=CCC3` (stereo not drawn) [Compound I-13], in that order: 93 nM, 4 nM, 7 nM and 19 nM.
For `COc1cccc(Cc2c3c(c4c(OC(C)C(=O)O)cc(C)nn24)C(C(N)=O)=CCC3)c1` (stereo not drawn) [Compound I-8], the half-maximal inhibitory concentration (IC50) turned out to be 76 nM at human type I sPLA2, 2 nM against human type V sPLA2, 12 nM against human type X sPLA2 and 23 nM on human type II sPLA2.
In the case of `Cc1cc(OC(C)C(=O)O)c2c3c(c(Cc4ccc(Cl)cc4)n2n1)CCC=C3C(N)=O` (stereo not drawn) [Compound I-6], the half-inhibitory concentration (IC50) was 86 nM against human type I sPLA2, 1 nM on human type V sPLA2, 5 nM against human type X sPLA2 and 17 nM against human type II sPLA2.

In general, IC50 refers to the midpoint of a concentration-inhibition curve. Read a low IC50 as inhibition by little substance. In general, melting point refers to the temperature of the solid-liquid transition.
